Results taken from ChEMBL document CHEMBL5625245, “Novel ProTide prodrugs of 5-fluoro-2'-deoxyuridine for the treatment of liver cancer” (Eur J Med Chem, 2023).
≈ marks a conversion by molar mass, not a printed value.

Key:
HepG2 [1] = assay: Antiproliferative activity against human HepG2 cells assessed as reduction in cell viability measured after 48 to 72 hrs by MTT assay; type: functional, cell-based
[2] = Antiproliferative activity against human NCM460 cells assessed as reduction in cell viability measured after 48 to 72 hrs by MTT assay; type: toxicity, cell-based
HepG2 [3] = assay: Antitumor activity against human HepG2 cells xenografted in orthotopic mouse model assessed as tumor growth inhibition at 15 mg/kg, iv administered twice daily for 18 days relative to control; type: functional; settings: HepG2, 432 h, time 18 day, read-out: TGI
[4] = Antiproliferative activity against human L02 cells assessed as reduction in cell viability measured after 48 to 72 hrs by MTT assay; type: toxicity, cell-based
HepG2 [5] = assay: Antitumor activity against human HepG2 cells xenografted in orthotopic mouse model assessed as average number of tumor at 15 mg/kg, iv administered twice daily for 18 days (reference value: 49+/3.6 mM); type: functional; settings: time 18 day
HepG2 [6] = assay: Antiproliferative activity against human HepG2 cells assessed as reduction in cell viability at 20 uM measured after 48 hrs by MTT assay relative to control; type: functional
Bel-7402 [7] = assay: Antiproliferative activity against human Bel-7402 cells assessed as reduction in cell viability measured after 48 to 72 hrs by MTT assay; type: functional, cell-based
[8] = Solubility of the compound in 2% DMSO/8% tween80/90% saline at 25 degreeC by HPLC analysis; type: physicochemical
[9] = Toxicity in orthotopic mouse assessed as effect on spleen at 60 mg/kg, iv administered twice daily for 18 days by H and E staining based analysis; type: organism-based; settings: in vivo, 432 h, time 18 day
[10] = (§1) Drug metabolism in rat liver homogenate assessed as formation of (2S)-2-[[[(2R,3S,5R)-3-[(2S)-1-[(2S)-2-(tert-butoxycarbonylamino)-3-methyl-butanoyl]pyrrolidine-2-carbonyl]oxy-5-(5-fluoro-2,4-dioxo-pyrimidin-1-yl)tetrahydrofuran-2-yl]methoxy-hydroxy-phosphoryl]amino]propanoic acid measured after 20 mins; type: ADME, tissue-based; settings: tissue homogenate
[11] = Toxicity in orthotopic mouse assessed as change in liver weight at 60 mg/kg, iv administered twice daily for 18 days; type: organism-based; settings: in vivo, 432 h, time 18 day
[12] = Toxicity in orthotopic mouse assessed as effect on liver at 60 mg/kg, iv administered twice daily for 18 days by H and E staining based analysis; type: organism-based; settings: in vivo, 432 h, time 18 day
[13] = Solubility of the compound in 5% DMSO/10% PEG300/85% saline at 25 degreeC by HPLC analysis; type: physicochemical
Bel-7402 [14] = assay: Antiproliferative activity against human Bel-7402 cells assessed as reduction in cell viability at 20 uM measured after 48 hrs by MTT assay relative to control; type: functional
HepG2 [15] = assay: Antitumor activity against human HepG2 cells xenografted in orthotopic mouse model assessed as tumor growth inhibition at 60 mg/kg, iv administered twice daily for 18 days in presence of 5-Fluorouracil relative to control; type: functional; settings: HepG2, 432 h, time 18 day, read-out: TGI
[16] = Solubility of the compound in 5% DMSO/10% Tween80/85% saline at 25 degreeC by HPLC analysis; type: physicochemical
[17] = as §1, with “120” for “20”; type: ADME, tissue-based; settings: tissue homogenate, 2 h
[18] = Toxicity in orthotopic mouse assessed as effect on lung at 60 mg/kg, iv administered twice daily for 18 days by H and E staining based analysis; type: organism-based; settings: in vivo, 432 h, time 18 day
[19] = Solubility of the compound in 2% DMSO/10% tween80/88% saline at 25 degreeC by HPLC analysis; type: physicochemical
[20] = Toxicity in orthotopic mouse assessed as effect on heart at 60 mg/kg, iv administered twice daily for 18 days by H and E staining based analysis; type: organism-based; settings: in vivo, 432 h, time 18 day
[21] = Selectivity index, ratio of IC50 for human L02 cells to IC50 for human Bel-7402 cells; type: toxicity; settings: L02 cells and Bel-7402 cells, read-out: Ratio IC50
[22] = Solubility of the compound in 5% DMSO/10% cremophor EL/85% saline at 25 degreeC by HPLC analysis; type: physicochemical
[23] = Selectivity index, ratio of IC50 for human L02 cells to IC50 for human HepG2 cells; type: toxicity; settings: L02 cells and HepG2 cells, read-out: Ratio IC50
[24] = Solubility of the compound in 5% PBS/95% saline at 25 degreeC by HPLC analysis; type: physicochemical
[25] = Toxicity in orthotopic mouse assessed as effect on kidney at 60 mg/kg, iv administered twice daily for 18 days by H and E staining based analysis; type: organism-based; settings: in vivo, 432 h, time 18 day
[26] = Toxicity in orthotopic mouse assessed as effect on body weight at 60 mg/kg, iv administered twice daily for 18 days; type: organism-based; settings: in vivo, 432 h, time 18 day
[27] = Solubility of the compound in 5% PEG300/95% saline at 25 degreeC by HPLC analysis; type: physicochemical
[28] = Solubility of the compound in 100% saline at 25 degreeC by HPLC analysis; type: physicochemical
[29] = Metabolic stability in human plasma assessed as half life at 1 mg/ml measured upto 72 hrs by HPLC analysis; type: ADME, cell-free
[30] = Solubility of the compound in 5% DMSO/95% saline at 25 degreeC by HPLC analysis; type: physicochemical
[31] = Solubility of the compound in 5% DMSO/8% Tween80/87% saline at 25 degreeC by HPLC analysis; type: physicochemical
HepG2 [32] = assay: Antitumor activity against human HepG2 cells xenografted in orthotopic mouse model assessed as average number of tumor at 60 mg/kg, iv administered twice daily for 18 days in presence of 5-Fluorouracil (reference value: 49+/3.6 mM); type: functional; settings: time 18 day
[33] = Metabolic stability in rat liver homogenates assessed as half life at 1 mg/ml measured after 4 hrs by HPLC analysis; type: ADME, tissue-based
[34] = Toxicity in orthotopic mouse assessed as effect on drug tolerance at 60 mg/kg, iv administered twice daily for 18 days; type: organism-based; settings: in vivo, 432 h, time 18 day
[35] = Metabolic stability in rat plasma assessed as half life at 1 mg/ml measured upto 72 hrs by HPLC analysis; type: ADME, cell-free
[36] = Drug metabolism in rat liver homogenate assessed as (2S)-2-[[[(2R,3S,5R)-3-[(2S)-2-(tert-butoxycarbonylamino)propanoyl]oxy-5-(5-fluoro-2,4-dioxo-pyrimidin-1-yl)tetrahydrofuran-2-yl]methoxy-hydroxy-phosphoryl]amino]propanoic acid formation measured upto 90 mins; type: ADME, tissue-based; settings: tissue homogenate, 1.5 h

Row | Structure (SMILES) | IC50 (HepG2 [1]) [µM] | IC50 [2] [µM] | IC50 [4] [µM] | Activity (HepG2 [6]) [%] | IC50 (Bel-7402 [7]) [µM] | solubility [8] [µg/mL] | Activity [9] | Activity [11] | Activity [12] | solubility [13] [µg/mL] | Activity (Bel-7402 [14]) [%] | inhibition in vivo at 60 mg/kg (HepG2 [15]) [%] | solubility [16] [µg/mL] | Activity [18] | solubility [19] [µg/mL] | Activity [20] | selectivity ratio [21] | solubility [22] [µg/mL] | selectivity ratio [23] | solubility [24] [µg/mL] | also measured
1 | O=c1[nH]cc(F)c(=O)[nH]1 [FLUOROURACIL] | > 100 | > 100 | > 100 | 8.31 | 36.5 |  |  |  |  |  |  |  |  |  |  |  |  |  |  |  | inhibition in vivo at 15 mg/kg (HepG2 [3]): 0%; Activity (HepG2 [5]): 49 mM
2 | CC(C)OC(=O)[C@H](C)N[P@](=O)(OC[C@H]1O[C@@H](n2cc(F)c(=O)[nH]c2=O)C[C@@H]1OC(=O)[C@@H]1CCCN1C(=O)[C@@H](NC(=O)OC(C)(C)C)C(C)C)Oc1ccccc1 | 0.54 | > 100 | > 100 | 75.24 | 0.81 | < 5000 | Non-Toxic | Toxic | Non-Toxic | < 1000 | >70 | 28.6 | > 10000 | Non-Toxic | > 10000 | Non-Toxic | 205 | 5000 (≈ 6.16 mM) | 307 | < 1000 | Drug metabolism [10]: Metabolite_Detected; Drug metabolism [17]: Metabolite_Detected; Activity [25]: Non-Toxic; Activity [26]: Non-Toxic; solubility [27]: < 1000 µg/mL; solubility [28]: < 1000 µg/mL; half-life at 1 mg/ml [29]: > 48 h; solubility [30]: < 1000 µg/mL; solubility [31]: 5000 µg/mL (≈ 6.16 mM); tumour count (HepG2 [32]): 35; half-life at 1 mg/ml [33]: 1.63 h; Activity [34]: Non-Toxic; half-life at 1 mg/ml [35]: > 48 h
3 | CC(C)OC(=O)[C@H](C)N[P@](=O)(OC[C@H]1O[C@@H](n2cc(F)c(=O)[nH]c2=O)C[C@@H]1OC(=O)[C@H](C)NC(=O)OC(C)(C)C)Oc1ccccc1 | 0.42 | > 100 | > 100 | 83.61 | 0.79 | < 5000 | Non-Toxic | Toxic | Non-Toxic | < 1000 | 82.19 | 75.5 | > 10000 | Non-Toxic | > 10000 | Non-Toxic | 165 | 5000 (≈ 7.28 mM) | 310 | < 1000 | Drug metabolism [36]: Metabolite_Detected; Activity [25]: Non-Toxic; Activity [26]: Non-Toxic; solubility [27]: < 1000 µg/mL; solubility [28]: < 1000 µg/mL; half-life at 1 mg/ml [29]: > 48 h; solubility [30]: < 1000 µg/mL; solubility [31]: 5000 µg/mL (≈ 7.28 mM); tumour count (HepG2 [32]): 12; half-life at 1 mg/ml [33]: 0.16 h; Activity [34]: Non-Toxic; half-life at 1 mg/ml [35]: > 48 h
